# Target: Tryptophan--tRNA ligase (Mycobacterium tuberculosis (strain ATCC 25618 / H37Rv), UniProt P9WFT3)
# Assay: Biochemical assay for Mt-TrpRS
# Assay type: functional
# Chain of Tryptophan--tRNA ligase (P9WFT3 whole entry): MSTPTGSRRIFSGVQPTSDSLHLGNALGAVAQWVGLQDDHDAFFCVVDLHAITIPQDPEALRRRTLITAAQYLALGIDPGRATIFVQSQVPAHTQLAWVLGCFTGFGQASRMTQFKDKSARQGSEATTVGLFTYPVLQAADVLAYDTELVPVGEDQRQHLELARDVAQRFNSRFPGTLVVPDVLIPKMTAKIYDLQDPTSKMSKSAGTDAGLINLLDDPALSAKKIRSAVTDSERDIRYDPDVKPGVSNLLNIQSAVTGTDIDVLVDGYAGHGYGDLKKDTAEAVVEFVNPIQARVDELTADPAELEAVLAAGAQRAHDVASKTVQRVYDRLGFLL
row,Compound,IC50 [µM]
1,Cn1ccc(C(=O)N2CCCC2c2[nH]ncc2C(N)=O)n1 (centres undefined),> 195
2,Cc1ccc(CN2C[C@H](NC(=O)c3nccn3C)[C@H]3OCCC[C@H]32)o1,> 195
3,Cc1nc(C2(O)CCCNCC2)sc1CCOc1ccc(F)cc1 (centres undefined),> 195
4,CC(C)N(C)Cc1cncc2c1CCN(CC(=O)N(C)C)C2,> 195
5,CC(=O)N1CCCC(c2ccccn2)C1 (centres undefined),> 195
6,Cc1cc(CN2CC[C@@H]3O[C@@H](c4nnc(C)o4)C[C@H]3C2)no1,> 195
7,Cc1ccc(CNC(=O)c2ccc(CNS(C)(=O)=O)o2)cc1F,> 195
8,CN1CCC(c2cncc(-c3cccc(Cl)c3)n2)CC1,> 195
9,COc1cccc(-c2ccnc(C3CCNCC3)c2)c1,> 195
10,OCCN1CCN(Cc2cnc3c(-c4ccccc4)cnn3c2)CC1,> 195
11,Cc1cc2cc(C(=O)N3C[C@H](O)[C@]4(CCCO4)C3)ccc2o1,> 195
12,CO[C@H]1CN(Cc2ccc(F)c(F)c2)C[C@@]12CCCO2,> 195
13,NC(=O)C1(CCCc2ccccn2)CCCN(Cc2ccncc2)C1 (centres undefined),> 195
14,COCC(=O)N1CCCC(c2cccc(-n3ccnc3)n2)C1 (centres undefined),> 195
15,CN(C)c1ncccc1CNC(=O)N1CCCC1CN1CCCC1 (centres undefined),> 195
16,CN1CCO[C@@H]2CN(C(=O)NCc3ccccc3)CC[C@@H]2C1,> 195
17,CNC(=O)C1(CCCc2ccncc2)CCCCN1 (centres undefined),> 195
18,Cc1cnccc1-c1cnn(CCNC(=O)c2ccncc2)c1C1CC1,> 195
19,COCCN1CCN(CCS(C)(=O)=O)CC1C (centres undefined),> 195
20,Cc1ccc(S(=O)(=O)N2C[C@H]3C[C@H](NC(=O)c4cc[nH]n4)[C@H]3C2)cc1,> 195
21,CNC(=O)c1cnc2c(C)csc2c1,> 195
22,Cc1ccc2c(c1)[C@@H](CC(=O)N(C)C)CCO2,> 195
23,COc1ccc(C(=O)Nc2cccc(SC)c2)c(OC)n1,> 195
24,NCC(=O)N1CCCC1c1n[nH]cc1-c1ccccc1F (centres undefined),> 195
25,O=C(C1CCOC1)N1C[C@@H]2CCN(C(=O)c3cscn3)[C@@H]2C1 (some centres undefined),> 195
26,CCCn1cc(CN2CCCC2c2nccc(CN(C)C)n2)cn1 (centres undefined),> 195

row,Compound,IC50 [µM]
1,COc1ccccc1C1=NOC(CC2(C(=O)O)CCOCC2)C1 (centres undefined),> 195
2,CN1CCCN(C(=O)c2ccnn2-c2ccc3ccccn23)CC1,> 195
3,CCOc1ccc(N(C)Cc2nnc(C)o2)cc1,> 195
4,NC(=O)C1CCN(C(C(=O)O)c2ccc(Cl)c(C(F)(F)F)c2)CC1 (centres undefined),> 195
5,CN(C)C(=O)NCC1CC2(CO1)CN(c1nncs1)C2 (centres undefined),> 195
6,NC(=O)Nc1cc(F)ccc1SCC(F)F,> 195
7,O=C(c1cc2c(s1)CCC2)N1CCCC(c2cnccn2)C1 (centres undefined),> 195
8,c1ccc(CO[C@H]2C[C@@H]3CN(Cc4cccnc4)C[C@@H]3C2)cc1,> 195
9,CNCC(=O)N1CCCCC1c1nccc(C)n1 (centres undefined),> 195
10,CC1CN(Cc2ccccc2)CCCN1CCS(C)(=O)=O (centres undefined),> 195
11,Cc1cccc(CN2CCCC2c2cccc(CCC(=O)O)n2)c1 (centres undefined),> 195
12,O=C(Cn1cccnc1=O)NC(Cc1ccsc1)c1nccs1 (centres undefined),> 195
13,CCN(CC)C1COc2ccc(Br)cc2C1=O (centres undefined),> 195
14,COc1ccc([C@@H]2CN(C(=O)CCn3cccn3)C[C@H]2NC(C)=O)cc1,> 195
15,CCn1c2c(ccc1=O)CC(NCc1cnn(C)c1)CC2 (centres undefined),> 195
16,Nc1nccc(C2CCN(CCO)C2)n1 (centres undefined),> 195
17,O[C@@H]1CN(Cc2ccncc2)C[C@H]1Oc1ccccc1,> 195
18,COCCN1CCC(NCc2ccc(F)cc2F)C1 (centres undefined),> 195
19,COCCn1c2c(ccc1=O)CC(NCc1cnn(C)c1)CC2 (centres undefined),> 195
20,CN(Cc1cccnc1)Cc1cncc2c1CCN(c1ccccn1)C2,> 195
21,CC(C)NC(=O)c1nc2c(s1)CCCN2C(C)C,> 195
22,CCOC(=O)COc1ccc(C(C)=O)c(O)c1,> 195
23,Nc1nc2c(c(NC3CCCC3)n1)CCN(C(=O)C1CCOC1)CC2 (centres undefined),> 195
24,Cn1c(C(=O)NCC2(N)CCCC2)cc2ccccc21,> 195
25,O=C(NCC1CC2(CO1)CN(c1ncccn1)C2)C1CCC1 (centres undefined),> 195
26,CCn1ncc2c1C(COC)N(C(=O)c1cscn1)CC2 (centres undefined),> 195

row,Compound,IC50 [µM]
1,CCn1cc(N)c(-c2nnc3n2CCCC3)n1,> 195
2,NC(=O)C1CCN(C(=O)c2ccn(-c3ccc(F)cc3)n2)CC1,> 195
3,Nc1c(N2CCCC2)ncnc1N1CCOCC1,> 195
4,O=C(c1cc2c(s1)CCCC2)N1CCc2nc(C3CCCN3)ncc2C1 (centres undefined),> 195
5,CCOC(=O)CNC(=O)C1OC(c2ccccc2)=NN1C(C)=O (centres undefined),> 195
6,CS(=O)(=O)NC1CCN(C(=O)CCC2CCCO2)CC1 (centres undefined),> 195
7,CC(=O)N1CCC(C(=O)N2CCC2c2nc(-c3ccc(C)s3)no2)CC1 (centres undefined),> 195
8,Cc1nc(N(C)CCN(C)C)c2cnn(C)c2n1,> 195
9,CCC(O)CN1CCN(C(=O)c2cc3ccccc3n2CC)CC1 (centres undefined),> 195
10,CN(C)C(CNCc1nc(-c2ccsc2)no1)c1cccs1 (centres undefined),> 195
11,CC1CCCCN1c1nc2c(c(=O)[nH]1)CCN(Cc1ccccc1O)C2 (centres undefined),> 195
12,Cn1ccc(C(=O)N2CCCC(c3cc(O)n(C)n3)C2)n1 (centres undefined),> 195
13,C[C@H](N)Cn1nc(-c2cccs2)oc1=O,> 195
14,c1ccc(N2CCOC(Cc3cccnc3)C2)cc1 (centres undefined),> 195
15,Cc1cccnc1C(=O)N1CCC(Cc2cnc3[nH]ccc3c2)CC1,> 195
16,CCOCC(=O)N1C[C@@H]2CC[C@H](Oc3ccccc3)[C@@H]2C1,> 195
17,COCC1CC2(CCN(C(=O)c3ccc(F)c(Cl)c3)CC2)CO1 (centres undefined),> 195
18,COc1ccccc1CN1CC(O)CN(S(=O)(=O)C(C)C)CC1=O (centres undefined),> 195
19,Cc1cc(C)nc(C2CCCNC2)n1 (centres undefined),> 195
20,O=C(NC[C@H]1CC[C@H](c2nnc(-c3cccnc3)o2)CC1)C1CC1,> 195
21,Cc1ncsc1CN1CCN(C2CCOCC2)CC(C(N)=O)C1 (centres undefined),> 195
22,CC(=O)c1ccc(OCC(C)O)cc1O (centres undefined),> 195
23,CN1CCCC(CCCc2cccnc2)(C(N)=O)C1 (centres undefined),> 195
24,O=C(O)C1(Cc2cccc(-c3ccc(F)cc3)c2)CCOCC1,> 195
25,CCC(CC#N)n1ccc(C(F)(F)F)n1 (centres undefined),> 195
26,CC(=O)Nc1nc(C2CCN(C(=O)c3cncs3)CC2)cs1,> 195

row,Compound,IC50 [µM]
1,COCC(=O)N1CCC(C(=O)c2cc(C)cnc2N)CC1,> 195
2,Cc1nc(C2CCCN2CC(=O)N(C)Cc2ccsc2)no1 (centres undefined),> 195
3,CS(=O)(=O)NC[C@]1(O)CCN(C(=O)Cc2cccs2)C[C@H]1O,> 195
4,O=C(c1cnccn1)N1CCC2(CCCN(Cc3ccoc3)C2)C1 (centres undefined),> 195
5,CNCc1cc(F)ccc1Oc1ccc(F)cc1,> 195
6,COc1ccc(-c2cc(C3CCCNC3)ccn2)cc1 (centres undefined),> 195
7,Cn1nccc1CCC(=O)N1CCCC(Cc2cccnc2)C1 (centres undefined),> 195
8,Cc1c[nH]nc1C1CCN(C(=O)C2CCC2)CC1,> 195
9,CSc1ncc(C(=O)NCc2cc3n(n2)CCCN(CC(C)C)C3)cn1,> 195
10,COC1CN(C(=O)CC2CCCC2)CCC(=O)N(C)c2ccccc21 (centres undefined),> 195
11,COC(=O)c1ccc(CNCc2ccn(C)n2)cc1,> 195
12,Cc1ccc(CNc2nc(O)cc(C3CC(=O)N(C)C3)n2)cc1 (centres undefined),> 195
13,COc1ccc(-c2cc(N)on2)cc1,> 195
14,OCCN1CCCCC1c1cc[nH]n1 (centres undefined),> 195
15,CC1CCN(CC(O)CNc2ccccn2)CC1 (centres undefined),> 195
16,Fc1cccc(CN2C[C@@H]3CN(c4ncccn4)C[C@@H]3C2)c1,> 195
17,COCCNC(=O)c1ccccc1-n1cc(CN)cn1,> 195
18,COc1ccc2c3c1CN(C(C)=O)CC3=CC(C)(C)CO2,> 195
19,CN(CC1(O)CCN(c2ccccn2)C1)C(=O)Cc1ccsc1 (centres undefined),> 195
20,O=C(c1cncs1)N1CCC(c2cnccn2)CC1,> 195
21,Cc1csc(CCNC(=O)NC(C)Cn2cccn2)n1 (centres undefined),> 195
22,C=Cn1ncc(CN2CCC(c3ncc(Cl)cc3S(C)(=O)=O)CC2)c1C,> 195
23,CCc1cc(O)nc(C2CCCN2C(=O)COC)n1 (centres undefined),> 195
24,CCS(=O)(=O)N1CC(=O)N(Cc2ccccc2OC)CC(O)C1 (centres undefined),> 195
25,COc1cccc(CNc2cnn(CC(F)F)c2)c1,> 195
26,Cc1c[nH]nc1C1CCN(C(=O)C2CCCC2)C1 (centres undefined),> 195

row,Compound,IC50 [µM]
1,C[C@@]1(O)CCN(Cc2cc[nH]n2)C[C@H]1Oc1cccc(F)c1,> 195
2,Nc1nccc(C2CCN(CC3CC3)C2)n1 (centres undefined),> 195
3,O=C(NCC1=CCCCC1)C(c1cccnc1)N1CCCC1 (centres undefined),> 195
4,CCS(=O)(=O)NCCCNCc1c(C)nn(C)c1N(C)C,> 195
5,COc1ccccc1NC(=O)NCCCC(=O)Nc1cn[nH]c1,> 195
6,CCN(CC)Cc1ccc(C(=O)N2CCN(CC(C)O)CC2)o1 (centres undefined),> 195
7,CC(C)N(C)Cc1cncc2c1CCN(Cc1ccoc1)C2,> 195
8,CC(O)CN1CCC(=O)N(Cc2ccccc2)Cc2ccccc21 (centres undefined),> 195
9,Cc1c(Br)cc2c(c1C)OCC(N(C)C)C2=O (centres undefined),> 195
10,Cc1cc(NC(=O)CN2CCc3cncnc3C2)no1,> 195
11,Fc1ccccc1OCCc1cc(C2CNCCO2)n[nH]1 (centres undefined),> 195
12,CC(=O)N1CCN(c2cc(CCN)nc(C3CC3)n2)CC1,> 195
13,Cc1c[nH]nc1C1CCN(S(=O)(=O)N(C)C)C1 (centres undefined),> 195
14,O=C(C1CCCC1)N1CCC(c2n[nH]c3nccnc23)CC1,> 195
15,O=C(NS(=O)(=O)c1cccnc1)C1CC(c2ccccc2)=NO1 (centres undefined),> 195
16,CC(NCc1c(C(C)C)nn(C)c1N1CCOCC1)C(=O)N(C)C (centres undefined),> 195
17,C[C@]1(O)CN(CCO)CC[C@@H]1Oc1cccc(F)c1,> 195
18,COCc1cc(O)nc(C2CCCN(Cc3cccc(Cl)c3Cl)C2)n1 (centres undefined),> 195
19,CN(C)C(=O)c1cncnc1-c1ccc(CNC(=O)C2CCCO2)cc1 (centres undefined),> 195
20,CC(=O)N1CCCC1c1cccc(Cc2ccccc2Cl)n1 (centres undefined),> 195
21,CN(C)C(CNCc1nc(-c2ccsc2)no1)c1ccsc1 (centres undefined),> 195
22,Fc1ccc(Cc2cnc(C3CCCN3)cn2)cc1 (centres undefined),> 195
23,CC(=O)N1CCc2nc(-c3ccc(F)cc3)nc(NC(C)C)c2CC1,> 195
24,Cc1cnc(N2CCOC(C(=O)NCc3ccccc3)C2)s1 (centres undefined),> 195
25,O=C(O)Cc1nc2nccc(-c3ccc(F)cc3)n2n1,> 195
